From patent publication US8247615B2, “Process of converting esterified xanthophylls from Capsicum to non-esterified xanthophylls in high yields and purities” (Kalamazoo Holdings, Inc., priority 2010, dated 2012)
Converted amounts (≈) assume the structure as drawn. “Also recorded” adds a separate entry of the source.

Experiments:
Type in all cases: physicochemical
[1] = Solubility of zeaxanthin in solvents (saturated solution, residue weighed); settings: organic solvent or mixture, thermodynamic from solid
From the text: In a procedure identical to that described in Example 6 up until almost the final methanol desolventization step, rather than desolventizing the zeaxanthin methanol slurry, it was transferred along with 1.5 parts water (by volume) to a continuous extractor containing 1 part dichloromethane. The slurry was extracted with dichloromethane for four hours at which time the dichloromethane solution in the receiver was decanted away from the crystalline zeaxanthin that had formed. The crystals thereby obtained were 95.1% pure all-trans-zeaxanthin. The yield obtained was only 12.6%, but this experiment was only intended to produce purified zeaxanthin crystals. […] These crystals were homogenized in a mortar and pestle and added to separate vials containing various solvents until a saturated solution was obtained. In order to measure the solubility of zeaxanthin in different solvents (shown in Table 7 below), a 5.0 ml portion of the saturated supernatant was filtered, desolventized, and the residues weighed.

[2] = Stability of zeaxanthin in strongly basic (pH~14) aqueous methanolic potassium hydroxide at room temperature for 15 days
Method: A reaction was carried out using the same reactants at the same proportions under the same conditions as reaction 19 in the table in Example 1. The procedure was identical for the first 24 hrs as described for reaction 19, but after refluxing for 24 hours, the mixture was allowed to settle for 1 hour at which time the upper hexane layer was decanted away. The remaining lower phase was washed twice by partitioning with water (30 mL for each wash). In each case the lower aqueous phase was discarded and after the second water wash, methanol (75 mL) was added to the remaining upper phase. The mixture was then distilled to remove the remaining hexanes and then refluxed for five hours. The mixture was then allowed to cool and was centrifuged and decanted to afford a supernatant and a crude precipitate. […] The purity was 17.4%. In a separate experiment, the mixture was allowed to cool after distilling away hexane (i.e. the five hour reflux described above was not carried out) and placed in a separating funnel for 15 days at which time the supernatant was removed by decanting to afford a crude precipitate. […] The supernatant and both wash solutions were analyzed for zeaxanthin content and >99% of the input zeaxanthin was accounted for, even after sitting in caustic solution for two weeks!

[3] = Stability of zeaxanthin to saponification / reflux in caustic aqueous methanolic potassium hydroxide
Method: In a procedure similar to that described in Example 2 after distilling away the hexane, the mixture was refluxed for a total of 40 hours and the content of zeaxanthin isomers was monitored by HPLC as a function of time. After refluxing for 40 hours the mixture was allowed to cool, then centrifuged to afford a supernatant and a crude precipitate. The crude precipitate was washed with methanol (4× by weight of crude precipitate) centrifuged and decanted to afford a wash solution and a refined precipitate. After desolventization, the powder was 59.0% pure zeaxanthin corresponding to a yield of 71%. The supernatant and the wash solution were both analyzed for zeaxanthin content and >99% of input zeaxanthin was accounted for, even after refluxing in caustic solution for 40 hours!

[4] = Stability of zeaxanthin on spray drying of the methanol slurry; settings: spray dryer, inlet 120-160° C., outlet 60.5-87.2° C., nitrogen drying gas
Method: In an experiment identical to the procedure described in Example 6, the zeaxanthin/methanol slurry was desolventized using a spray dryer. […] Inlet temperatures ranged from 120° C. to 160° C., outlet temp was 60.5° C. to 87.2° C., and rotary atomizer was set at 5.5 bar. Nitrogen was used as the drying gas.

[5] = Stability of cis and trans isomers of zeaxanthin to the analytical sample preparation conditions; settings: analytical saponification in refrigerator, between 2 and 119 hours
Method: […]
Using the sample preparation conditions above, duplicate samples were prepared from the same oleoresin and each were split into seven separate vials and then stored in the refrigerator. A vial from each of the duplicate samples was removed at various times and analyzed by HPLC. […] We therefore conclude that our sample preparation and analysis conditions are not changing the amounts of the two isomers and that the amounts measured are the amounts in the samples prior to sample preparation and analysis.

In the case of `CC1=C(/C=C/C(C)=C/C=C/C(C)=C/C=C/C=C(C)/C=C/C=C(C)/C=C/C2=C(C)CC(O)CC2(C)C)C(C)(C)CC(O)C1` (stereo not shown) [Zeaxanthin, zeaxanthin], the solubility ([1]; solvent Acetone) is reported as 1630 µg/mL (≈ 2870 µM), the solubility ([1]; solvent DCM (dichloromethane)) is reported as 2960 µg/mL (≈ 5200 µM) and the solubility ([1]; solvent EtOAc (ethyl acetate)) is reported as 1070 µg/mL (≈ 1880 µM). It also gave a solubility ([1]; solvent EtOH (ethanol)) of 40 µg/mL (≈ 70.3 µM), a solubility ([1]; solvent Hexane) of 68 µg/mL (≈ 120 µM) and a solubility ([1]; solvent IPA (isopropyl alcohol)) of 81 µg/mL (≈ 142 µM). It also gave a solubility ([1]; solvent Methanol) of 82 µg/mL (≈ 144 µM), a solubility ([1]; solvent MtBE (methyl tert-butyl ether)) of 726 µg/mL (≈ 1280 µM) and a solubility ([1]; solvent THF (tetrahydrofuran)) greater than 20400 µg/mL. For the same compound, the “input zeaxanthin accounted for” value ([2]; after sitting in caustic solution for two weeks (15 days), precipitate, supernatant and wash solutions) was greater than 99%, the “degradation / loss of zeaxanthin” value ([2]; strongly basic solution (pH~14), room temperature, 15 days) was “no degradation of zeaxanthin was observed; also recorded: nor was any significant loss of zeaxanthin observed; also recorded: no loss in zeaxanthin content” and the “input zeaxanthin accounted for” value ([3]; after refluxing in caustic solution for 40 hours, precipitate, supernatant and wash solution) was greater than 99%. For the same compound, the stability to degradation ([3]; reflux in very basic aqueous methanolic solution) was “stable to degradation”, the loss of zeaxanthin ([3]; saponification by the method of the present invention, Capsicum starting material) was less than 1% and the degradation of zeaxanthin [4] was “No degradation of zeaxanthin was observed”. The “change in amounts of cis and trans isomers” value [5] was “no change was observed”.
